Measurements from PubChem BioAssay AID248 (DTP/NCI, 2004).
Several values for one entry are separate records, joined by “and”; a condition that tells them apart may be missing. Equal entries are not always repeated. Toxic doses and inconclusive results are not listed. No stated cut-off is given here; in the data, active means T/C of 150% or more; inactive means T/C below 125%.

System: L1210 leukemia ip in BDF1 mice, survival T/C
Assay: NCI In Vivo Anticancer Drug Screen. Data for tumor model L1210 Leukemia (intraperitoneal) in B6D2F1 (BDF1) mice
Settings: endpoint: mean survival time, higher = longer survival
Outline: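 Value reflects the ratio of survival in compound-treated mice to survival in vehicle-treated controls, with both groups carrying the same transplanted tumor.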

[1] = dose: 100.0 mg/kg/injection, schedule: Q01DX009 (ip), vehicle: saline with Tween-80
[2] = dose: 200.0 mg/kg/injection, schedule: Q01DX009 (ip), vehicle: saline with Tween-80
[3] = dose: 400.0 mg/kg/injection, schedule: Q01DX009 (ip), vehicle: saline with Tween-80
[4] = dose: 100.0 mg/kg/injection, schedule: Q04DX003 (ip), vehicle: Klucel (hydroxypropylcellulose) (HPC)
[5] = dose: 200.0 mg/kg/injection, schedule: Q04DX003 (ip), vehicle: Klucel (hydroxypropylcellulose) (HPC)
[6] = dose: 400.0 mg/kg/injection, schedule: Q04DX003 (ip), vehicle: Klucel (hydroxypropylcellulose) (HPC)
[7] = dose: 100.0 mg/kg/injection, schedule: Q01DX009 (ip), vehicle: saline sonified
[8] = dose: 200.0 mg/kg/injection, schedule: Q01DX009 (ip), vehicle: saline sonified
[9] = dose: 50.0 mg/kg/injection, schedule: Q01DX001 (ip), vehicle: saline
[10] = dose: 100.0 mg/kg/injection, schedule: Q04DX002 (ip), vehicle: Klucel (hydroxypropylcellulose) (HPC)
[11] = dose: 100.0 mg/kg/injection, schedule: Q04DX002 (ip), vehicle: saline
[12] = dose: 200.0 mg/kg/injection, schedule: Q04DX002 (ip), vehicle: saline
[13] = dose: 400.0 mg/kg/injection, schedule: Q04DX002 (ip), vehicle: saline
[14] = dose: 100.0 mg/kg/injection, schedule: Q01DX001 (ip), vehicle: saline
[15] = dose: 200.0 mg/kg/injection, schedule: Q01DX001 (ip), vehicle: saline
[16] = dose: 100.0 mg/kg/injection, schedule: Q04DX003 (ip), vehicle: saline with Tween-80
[17] = dose: 200.0 mg/kg/injection, schedule: Q04DX003 (ip), vehicle: saline with Tween-80

Measured: T/C

CC(C)N(C(=O)Nc1cccc(C(F)(F)F)c1)C1CCCCC1
inactive: dose: 100.0 mg/kg/injection, schedule: Q01DX009 (ip), vehicle: gum acacia 90 % of control | dose: 200.0 mg/kg/injection, schedule: Q01DX009 (ip), vehicle: gum acacia 98 % of control | dose: 400.0 mg/kg/injection, schedule: Q01DX009 (ip), vehicle: gum acacia 88 % of control

O=C1OC(c2ccccc2)(c2ccccn2)c2ccccc21 (stereo not given)
inactive: [1] 90 % of control | [2] 92 % of control | [3] 88 % of control

O=C(O)c1ccccc1C(=O)c1ccc2c3c(cccc13)CC2
inactive: dose: 100.0 mg/kg/injection, schedule: Q01DX009 (ip), vehicle: Klucel (hydroxypropylcellulose) (HPC) 104 % of control | [4] 107 % of control | dose: 200.0 mg/kg/injection, schedule: Q01DX009 (ip), vehicle: Klucel (hydroxypropylcellulose) (HPC) 107 % of control | [5] 102 % of control | dose: 400.0 mg/kg/injection, schedule: Q01DX009 (ip), vehicle: Klucel (hydroxypropylcellulose) (HPC) 105 % of control | [6] 100 % of control

CCNC(C)(C)C(SSS)c1cccs1 (stereo not given)
inactive: [7] 96 % of control | dose: 100.0 mg/kg/injection, schedule: Q04DX003 (ip), vehicle: saline sonified 91 % of control | [8] 94 % of control | dose: 200.0 mg/kg/injection, schedule: Q04DX003 (ip), vehicle: saline sonified 87 % of control | dose: 400.0 mg/kg/injection, schedule: Q01DX009 (ip), vehicle: saline sonified 88 % of control | dose: 400.0 mg/kg/injection, schedule: Q04DX003 (ip), vehicle: saline sonified 89 % of control

C1CC2C(CCCC23OCCO3)C2(C1)OCCO2 (stereo not given)
inactive: dose: 100.0 mg/kg/injection, schedule: Q01DX009 (ip), vehicle: saline 115 % of control and 111 % of control | dose: 100.0 mg/kg/injection, schedule: Q04DX003 (ip), vehicle: saline 94 % of control and 99 % of control | dose: 200.0 mg/kg/injection, schedule: Q01DX009 (ip), vehicle: saline 122 % of control and 107 % of control | dose: 200.0 mg/kg/injection, schedule: Q04DX003 (ip), vehicle: saline 112 % of control and 101 % of control | dose: 400.0 mg/kg/injection, schedule: Q01DX009 (ip), vehicle: saline 108 % of control and 98 % of control | dose: 400.0 mg/kg/injection, schedule: Q04DX003 (ip), vehicle: saline 109 % of control and 97 % of control

CN=C(N)Nc1ccc(NC(=O)Nc2ccc(NC(=O)Nc3ccc(NC(N)=NC)cc3)cc2)cc1
inactive: dose: 3.75 mg/kg/injection, schedule: Q01DX Z (ip), vehicle: carboxymethylcellulose (CMC) 100 % of control | dose: 7.5 mg/kg/injection, schedule: Q01DX Z (ip), vehicle: carboxymethylcellulose (CMC) 110 % of control | dose: 31.0 mg/kg/injection, schedule: Q01DX Z (oral), vehicle: carboxymethylcellulose (CMC) 100 % of control | dose: 62.0 mg/kg/injection, schedule: Q01DX Z (oral), vehicle: carboxymethylcellulose (CMC) 110 % of control | dose: 125.0 mg/kg/injection, schedule: Q01DX Z (oral), vehicle: carboxymethylcellulose (CMC) 95 % of control | dose: 250.0 mg/kg/injection, schedule: Q01DX Z (oral), vehicle: carboxymethylcellulose (CMC) 101 % of control
active: dose: 30.0 mg/kg/injection, schedule: Q01DX Z (ip), vehicle: carboxymethylcellulose (CMC) 170 % of control

CCN(CC)C(=O)C(N)Cc1ccc(OC)c(N(CCCl)CCCl)c1 (stereo not given)
inactive: dose: 6.0 mg/kg/injection, schedule: Q01DX009 (ip), vehicle: saline 103 % of control | dose: 10.0 mg/kg/injection, schedule: Q01DX009 (ip), vehicle: saline 103 % of control | dose: 14.0 mg/kg/injection, schedule: Q01DX009 (ip), vehicle: saline 112 % of control | dose: 22.0 mg/kg/injection, schedule: Q01DX009 (ip), vehicle: saline 105 % of control | dose: 33.0 mg/kg/injection, schedule: Q01DX001 (ip), vehicle: saline 123 % of control | dose: 33.0 mg/kg/injection, schedule: Q01DX009 (ip), vehicle: saline 108 % of control | [9] 123 % of control | dose: 50.0 mg/kg/injection, schedule: Q01DX009 (ip), vehicle: carboxymethylcellulose (CMC) 104 % of control | dose: 50.0 mg/kg/injection, schedule: Q01DX009 (ip), vehicle: saline 116 % of control | dose: 75.0 mg/kg/injection, schedule: Q01DX009 (ip), vehicle: carboxymethylcellulose (CMC) 103 % of control | dose: 112.0 mg/kg/injection, schedule: Q01DX001 (ip), vehicle: saline 113 % of control | dose: 112.5 mg/kg/injection, schedule: Q01DX001 (ip), vehicle: carboxymethylcellulose (CMC) 116 % of control | dose: 150.0 mg/kg/injection, schedule: Q01DX001 (ip), vehicle: carboxymethylcellulose (CMC) 117 % of control

c1ccc2cc(SCCCN3CCOCC3)ccc2c1
inactive: [7] 97 % of control | [4] 95 % of control | [8] 116 % of control | [5] 95 % of control | [6] 90 % of control

O=[N+]([O-])c1ccc(Nc2ccccc2)c([N+](=O)[O-])c1
inactive: dose: 50.0 mg/kg/injection, schedule: Q04DX002 (ip), vehicle: Klucel (hydroxypropylcellulose) (HPC) 103 % of control | [10] 92 % of control

CCOC(=O)NCC(CCN(CC)CC)(c1cccc2ccccc12)C(C)CC (stereo not given)
inactive: [11] 93 % of control | [12] 90 % of control | [13] 100 % of control

CCC(C)C(C)CO (stereo not given)
inactive: [9] 108 % of control | [14] 100 % of control | [15] 88 % of control

O=S(=O)(C/C=C/COc1ccccc1)c1ccc2ccccc2c1
inactive: dose: 75.0 mg/kg/injection, schedule: Q01DX001 (ip), vehicle: Klucel (hydroxypropylcellulose) (HPC) 104 % of control | dose: 75.0 mg/kg/injection, schedule: Q01DX009 (ip), vehicle: Klucel (hydroxypropylcellulose) (HPC) 102 % of control | dose: 150.0 mg/kg/injection, schedule: Q01DX001 (ip), vehicle: Klucel (hydroxypropylcellulose) (HPC) 94 % of control | dose: 150.0 mg/kg/injection, schedule: Q01DX009 (ip), vehicle: Klucel (hydroxypropylcellulose) (HPC) 96 % of control | dose: 300.0 mg/kg/injection, schedule: Q01DX001 (ip), vehicle: Klucel (hydroxypropylcellulose) (HPC) 113 % of control | dose: 300.0 mg/kg/injection, schedule: Q01DX009 (ip), vehicle: Klucel (hydroxypropylcellulose) (HPC) 98 % of control

CC12CCC(Cl)(CC1)CC2=O
inactive: [11] 95 % of control | [12] 95 % of control | [13] 98 % of control

O=C(Nc1ccc([N+](=O)[O-])cc1)N(c1ccccc1)c1cc(N2CCOCC2)ccn1
inactive: [14] 91 % of control | [15] 91 % of control | dose: 400.0 mg/kg/injection, schedule: Q01DX001 (ip), vehicle: saline 88 % of control

COc1ccc(OC)c(NC(=O)Nc2ccc(Cl)cc2[N+](=O)[O-])c1
inactive: [1] 91 % of control | [2] 97 % of control | [3] 89 % of control

O=C(Nc1ccc(S(=O)(=O)N2CCCCC2)cc1)OC(c1ccccc1)(c1ccccc1)c1ccccc1
inactive: dose: 100.0 mg/kg/injection, schedule: Q01DX001 (ip), vehicle: carboxymethylcellulose (CMC) 94 % of control | dose: 200.0 mg/kg/injection, schedule: Q01DX001 (ip), vehicle: carboxymethylcellulose (CMC) 91 % of control | dose: 400.0 mg/kg/injection, schedule: Q01DX001 (ip), vehicle: carboxymethylcellulose (CMC) 89 % of control

CC(=O)OCCOc1ccc([N+](=O)[O-])cc1
inactive: [16] 102 % of control | [17] 102 % of control | dose: 400.0 mg/kg/injection, schedule: Q04DX003 (ip), vehicle: saline with Tween-80 103 % of control

O=C(CCCN1CC=C(N2CCc3ccccc32)CC1)c1ccc(F)cc1
inactive: [16] 102 % of control | [17] 102 % of control

Cc1ccccc1NC(=O)Oc1ccc2ccccc2c1
inactive: [10] 106 % of control | dose: 200.0 mg/kg/injection, schedule: Q04DX002 (ip), vehicle: Klucel (hydroxypropylcellulose) (HPC) 103 % of control | dose: 400.0 mg/kg/injection, schedule: Q04DX002 (ip), vehicle: Klucel (hydroxypropylcellulose) (HPC) 106 % of control

CC(C)P(=O)(CC(=O)O)c1ccccc1 (stereo not given)
inactive: dose: 100.0 mg/kg/injection, schedule: Q04DX002 (ip), vehicle: saline with Tween-80 100 % of control | dose: 400.0 mg/kg/injection, schedule: Q04DX002 (ip), vehicle: saline with Tween-80 97 % of control
